Calls of active or inactive are those of the source. The rule behind the calls is not given here.
Test system: CCRIS mutagenicity, Ames/micronucleus/aberration tests
Assay: CCRIS mutagenicity studies
[1] = Test System: AMES SALMONELLA TYPHIMURIUM, Strain/Indicator: TA98, Metabolic Activation: NONE, Method: PREINCUBATION
[2] = Test System: AMES SALMONELLA TYPHIMURIUM, Strain/Indicator: TA100, Metabolic Activation: NONE, Method: PREINCUBATION
[3] = Test System: AMES SALMONELLA TYPHIMURIUM, Strain/Indicator: TA100, Metabolic Activation: NONE, Method: STANDARD PLATE
[4] = Test System: AMES SALMONELLA TYPHIMURIUM, Strain/Indicator: TA1535, Metabolic Activation: NONE, Method: PREINCUBATION
[5] = Test System: AMES SALMONELLA TYPHIMURIUM, Strain/Indicator: TA98, Metabolic Activation: RAT, LIVER, S-9, AROCLOR 1254, Method: PREINCUBATION
[6] = Test System: AMES SALMONELLA TYPHIMURIUM, Strain/Indicator: TA100, Metabolic Activation: RAT, LIVER, S-9, AROCLOR 1254, Method: PREINCUBATION

Compound: CCOC(=O)C1OC1c1ccccc1 (stereo not given)
- mutagenic call (Test System: AMES SALMONELLA TYPHIMURIUM, Strain/Indicator: TA98, Metabolic Activation: HAMSTER, LIVER, S-9, AROCLOR 1254 (10%), Method: PREINCUBATION): inactive; negative
- mutagenic call [1]: inactive; negative
- mutagenic call (Test System: AMES SALMONELLA TYPHIMURIUM, Strain/Indicator: TA98, Metabolic Activation: NONE, Method: STANDARD PLATE): inactive; negative
- mutagenic call (Test System: AMES SALMONELLA TYPHIMURIUM, Strain/Indicator: TA98, Metabolic Activation: RAT, LIVER, S-9, AROCLOR 1254 (10%), Method: PREINCUBATION): inactive; negative
- mutagenic call (Test System: AMES SALMONELLA TYPHIMURIUM, Strain/Indicator: TA98, Metabolic Activation: RAT, LIVER, S-9, AROCLOR 1254, Method: STANDARD PLATE): inactive; negative
- mutagenic call (Test System: AMES SALMONELLA TYPHIMURIUM, Strain/Indicator: TA100, Metabolic Activation: HAMSTER, LIVER, S-9, AROCLOR 1254 (10%), Method: PREINCUBATION): inactive; negative
- mutagenic call [2]: inactive; negative
- mutagenic call [3]: inactive; negative
- mutagenic call (Test System: AMES SALMONELLA TYPHIMURIUM, Strain/Indicator: TA100, Metabolic Activation: RAT, LIVER, S-9, AROCLOR 1254 (10%), Method: PREINCUBATION): inactive; negative
- mutagenic call (Test System: AMES SALMONELLA TYPHIMURIUM, Strain/Indicator: TA100, Metabolic Activation: RAT, LIVER, S-9, AROCLOR 1254, Method: STANDARD PLATE): active; positive
- mutagenic call (Test System: AMES SALMONELLA TYPHIMURIUM, Strain/Indicator: TA1535, Metabolic Activation: HAMSTER, LIVER, S-9, AROCLOR 1254 (10%), Method: PREINCUBATION): inactive; negative
- mutagenic call [4]: inactive; negative
- mutagenic call (Test System: AMES SALMONELLA TYPHIMURIUM, Strain/Indicator: TA1535, Metabolic Activation: NONE, Method: STANDARD PLATE): inactive; negative
- mutagenic call (Test System: AMES SALMONELLA TYPHIMURIUM, Strain/Indicator: TA1535, Metabolic Activation: RAT, LIVER, S-9, AROCLOR 1254 (10%), Method: PREINCUBATION): inactive; negative
- mutagenic call (Test System: AMES SALMONELLA TYPHIMURIUM, Strain/Indicator: TA1535, Metabolic Activation: RAT, LIVER, S-9, AROCLOR 1254, Method: STANDARD PLATE): inactive; negative
- mutagenic call (Test System: AMES SALMONELLA TYPHIMURIUM, Strain/Indicator: TA1537, Metabolic Activation: HAMSTER, LIVER, S-9, AROCLOR 1254 (10%), Method: PREINCUBATION): inactive; negative
- mutagenic call (Test System: AMES SALMONELLA TYPHIMURIUM, Strain/Indicator: TA1537, Metabolic Activation: NONE, Method: PREINCUBATION): inactive; negative
- mutagenic call (Test System: AMES SALMONELLA TYPHIMURIUM, Strain/Indicator: TA1537, Metabolic Activation: NONE, Method: STANDARD PLATE): inactive; negative
- mutagenic call (Test System: AMES SALMONELLA TYPHIMURIUM, Strain/Indicator: TA1537, Metabolic Activation: RAT, LIVER, S-9, AROCLOR 1254 (10%), Method: PREINCUBATION): inactive; negative
- mutagenic call (Test System: AMES SALMONELLA TYPHIMURIUM, Strain/Indicator: TA1537, Metabolic Activation: RAT, LIVER, S-9, AROCLOR 1254, Method: STANDARD PLATE): inactive; negative
- mutagenic call (Test System: AMES SALMONELLA TYPHIMURIUM, Strain/Indicator: TA1538, Metabolic Activation: NONE, Method: STANDARD PLATE): inactive; negative
- mutagenic call (Test System: AMES SALMONELLA TYPHIMURIUM, Strain/Indicator: TA1538, Metabolic Activation: RAT, LIVER, S-9, AROCLOR 1254, Method: STANDARD PLATE): inactive; negative
- mutagenic call (Test System: CHINESE HAMSTER OVARY, Strain/Indicator: CHO-K1-BH4/6-THIOGUANINE, Metabolic Activation: NONE): active; positive
- mutagenic call (Test System: CHINESE HAMSTER OVARY, Strain/Indicator: CHO-K1-BH4/6-THIOGUANINE, Metabolic Activation: RAT, LIVER, S-9, AROCLOR 1254): active; positive

Compound: Nc1c2c(nc3ccccc13)CCCC2
- mutagenic call (Test System: AMES SALMONELLA TYPHIMURIUM, Strain/Indicator: TA97, Metabolic Activation: HAMSTER LIVER S-9, AROCLOR 1254 (30%), Method: PREINCUBATION): active; positive
- mutagenic call (Test System: AMES SALMONELLA TYPHIMURIUM, Strain/Indicator: TA97, Metabolic Activation: NONE, Method: PREINCUBATION): active; positive
- mutagenic call (Test System: AMES SALMONELLA TYPHIMURIUM, Strain/Indicator: TA97, Metabolic Activation: RAT LIVER S-9, AROCLOR 1254 (30%), Method: PREINCUBATION): active; positive
- mutagenic call (Test System: AMES SALMONELLA TYPHIMURIUM, Strain/Indicator: TA98, Metabolic Activation: HAMSTER LIVER S-9, AROCLOR 1254 (5 OR 10%), Method: PREINCUBATION): inactive; negative
- mutagenic call (Test System: AMES SALMONELLA TYPHIMURIUM, Strain/Indicator: TA98, Metabolic Activation: HAMSTER LIVER S-9, AROCLOR 1254 (30%), Method: PREINCUBATION): active; positive
- mutagenic call [1]: inactive; negative
- mutagenic call (Test System: AMES SALMONELLA TYPHIMURIUM, Strain/Indicator: TA98, Metabolic Activation: RAT LIVER S-9, AROCLOR 1254 (5%), Method: PREINCUBATION): active; positive
- mutagenic call (Test System: AMES SALMONELLA TYPHIMURIUM, Strain/Indicator: TA98, Metabolic Activation: RAT LIVER S-9, AROCLOR 1254 (10%), Method: PREINCUBATION): active; positive
- mutagenic call (Test System: AMES SALMONELLA TYPHIMURIUM, Strain/Indicator: TA98, Metabolic Activation: RAT LIVER S-9, AROCLOR 1254 (30%), Method: PREINCUBATION): inactive; negative
- mutagenic call [2]: inactive; negative
- mutagenic call (Test System: AMES SALMONELLA TYPHIMURIUM, Strain/Indicator: TA100, Metabolic Activation: RAT LIVER S-9, AROCLOR 1254 (30%), Method: PREINCUBATION): inactive; negative
- mutagenic call (Test System: UDS MOUSE HEPATOCYTES, Strain/Indicator: THY INCORP, Metabolic Activation: NONE, Method: AUTORADIOGRAPHY): active; positive
- mutagenic call (Test System: UDS RAT HEPATOCYTES, Strain/Indicator: THY INCORP, Metabolic Activation: NONE, Method: AUTORADIOGRAPHY): active; positive

Compound: CC(=O)N(C)c1ccc(N=Nc2ccc(N(C)C)cc2)cc1
- mutagenic call (Test System: AMES SALMONELLA TYPHIMURIUM, Strain/Indicator: TA98, Metabolic Activation: RAT, LIVER, S-9, POLYCHLORINATED BIPHENYLS, Method: PREINCUBATION): active; positive
- mutagenic call (Test System: AMES SALMONELLA TYPHIMURIUM, Strain/Indicator: TA100, Metabolic Activation: RAT, LIVER, S-9, POLYCHLORINATED BIPHENYLS, Method: PREINCUBATION): active; positive

Compound: O=C1OCC(CCl)=C1Br
- mutagenic call [3]: active; positive

Compound: O=[N+]([O-])c1ccc(Nc2ccc(Cl)cc2)cc1
- mutagenic call [1]: inactive; negative
- mutagenic call [5]: active; positive

Compound: O=C(O)c1ccc(/C=C/c2ccc([N+](=O)[O-])o2)cc1
- mutagenic call [1]: active; positive
- mutagenic call (Test System: AMES SALMONELLA TYPHIMURIUM, Strain/Indicator: TA98, Metabolic Activation: RAT, LIVER, S-9, PCB, Method: PREINCUBATION): active; positive
- mutagenic call [2]: active; positive
- mutagenic call (Test System: AMES SALMONELLA TYPHIMURIUM, Strain/Indicator: TA100, Metabolic Activation: RAT, LIVER, S-9, PCB, Method: PREINCUBATION): active; positive

Compound: N#Cc1ccc2nc(N)[nH]c2c1
- mutagenic call [5]: active; positive
- mutagenic call [6]: active; positive

Compound: C1CC2OC2CC1C1CO1 (stereo not given)
- mutagenic call (Test System: AMES SALMONELLA TYPHIMURIUM, Strain/Indicator: TA98, Metabolic Activation: HAMSTER, LIVER, S-9, AROCLOR 1254, Method: PREINCUBATION): active; positive
- mutagenic call [1]: active; positive
- mutagenic call [5]: active; positive
- mutagenic call (Test System: AMES SALMONELLA TYPHIMURIUM, Strain/Indicator: TA100, Metabolic Activation: HAMSTER, LIVER, S-9, AROCLOR 1254, Method: PREINCUBATION): active; positive
- mutagenic call [2]: active; positive
- mutagenic call [6]: active; positive
- mutagenic call (Test System: AMES SALMONELLA TYPHIMURIUM, Strain/Indicator: TA1535, Metabolic Activation: HAMSTER, LIVER, S-9, AROCLOR 1254, Method: PREINCUBATION): active; positive
- mutagenic call [4]: active; positive
- mutagenic call (Test System: AMES SALMONELLA TYPHIMURIUM, Strain/Indicator: TA1535, Metabolic Activation: RAT, LIVER, S-9, AROCLOR 1254, Method: PREINCUBATION): active; positive
- mutagenic call (Test System: AMES SALMONELLA TYPHIMURIUM, Strain/Indicator: TA1537, Metabolic Activation: HAMSTER, LIVER, S-9, AROCLOR 1254, Method: PREINCUBATION): active; positive
- mutagenic call (Test System: AMES SALMONELLA TYPHIMURIUM, Strain/Indicator: TA1537, Metabolic Activation: RAT, LIVER, S-9, AROCLOR 1254, Method: PREINCUBATION): active; positive
- mutagenic call (Test System: MOUSE LYMPHOMA, Strain/Indicator: L5178Y (TK+/TK-), Metabolic Activation: NONE, Method: SUSPENSION/PLATE): active; positive

— PubChem BioAssay AID1259407 (Chemical Carcinogenesis Research Information System (CCRIS), 2018)
